Assay results reported in article PMC10716780, “The multistep oxidation of cholesterol to pregnenolone by human cytochrome P450 11A1 is highly processive” (The Journal of Biological Chemistry, 2023).

How the values were obtained:
bovine P450 11A1 [1] = tested on: bovine P450 11A1; set-up: method as in PMID 217878; details: equilibrium dialysis, bovine P450 11A1 ref 26; cited from earlier work
bovine P450 11A1 [2] = tested on: bovine P450 11A1; set-up: method as in PMID 7056749; details: bovine P450 11A1, within dead time of stopped-flow ref 12; cited from earlier work
human P450 11A1 = target: T1, human P450 11A1 (Homo sapiens, UniProt P05108); assay: Stopped-flow ketoconazole trap, koff and binding rate measurements; details: for koff: read-out: koff of P450-sterol complex, 2 μM P450 11A1 + 2 μM steroid mixed with 20 μM ketoconazole, 23 °C, without Adx
T1 construct: M A S T R S P R P F N E I P S P G D N; Met-Ala (N-terminal start residues in place of the transit peptide and Ile40) (N); made in house; host or cells: E. coli C41(DE3) with GroES/GroEL, vector pET23C(+)
T1 sequence (P05108 41-521 limits assumed): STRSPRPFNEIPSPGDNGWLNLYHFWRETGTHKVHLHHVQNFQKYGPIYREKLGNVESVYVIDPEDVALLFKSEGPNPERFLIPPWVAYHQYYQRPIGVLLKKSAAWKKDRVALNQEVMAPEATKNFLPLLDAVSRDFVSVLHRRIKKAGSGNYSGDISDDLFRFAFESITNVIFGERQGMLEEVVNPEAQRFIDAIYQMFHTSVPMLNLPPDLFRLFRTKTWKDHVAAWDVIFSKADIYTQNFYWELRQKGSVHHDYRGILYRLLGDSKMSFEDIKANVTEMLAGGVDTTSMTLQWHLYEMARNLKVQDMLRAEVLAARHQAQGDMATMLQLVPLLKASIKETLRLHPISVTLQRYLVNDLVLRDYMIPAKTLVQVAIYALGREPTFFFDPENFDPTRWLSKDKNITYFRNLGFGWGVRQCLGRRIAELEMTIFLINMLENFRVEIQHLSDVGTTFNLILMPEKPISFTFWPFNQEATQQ
Procedure: Interaction of the azole nitrogen atom with the P450 heme produces a bathochromic (“type II”) spectral shift (to ∼430 nm)—an inverse effect of the binding of substrate.
Measurement of kon rate(s) was not performed because the sterols are delivered in a solution of HPCD, from which the dissociation rate is not known.
Determinations of koff rates were performed as previously described ([33]).

P450 11A1 (CYP11A1) = target: T2, P450 11A1 (CYP11A1) (Homo sapiens, UniProt P05108); assay: Kinetic isotope effect assay, disappearance of d0- and d3-cholesterol under single-turnover conditions; type: biochemical; details: human, pH 7.4; 5 μM P450, 5 μM sterol, low Adx single-turnover; read-out: sterol half-life (t1/2) (converted)
T2 construct: M A S T R S P R P F N E I P S P G D N; Met-Ala (N-terminal start residues in place of the transit peptide and Ile40) (N); made in house; host or cells: E. coli (P450 11A1 in C41(DE3); Adx and AdR in E. coli)
T2 sequence (P05108 41-521 limits assumed): T1 sequence (P05108 41-521 limits assumed)
T2 sequence (P00257 59-186 partner): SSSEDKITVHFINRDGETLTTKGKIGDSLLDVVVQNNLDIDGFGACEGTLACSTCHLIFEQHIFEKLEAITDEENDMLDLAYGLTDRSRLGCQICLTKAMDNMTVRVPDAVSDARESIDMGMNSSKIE
Procedure: P450 11A1 incubations were performed under (low Adx) single-turnover conditions (5 μM P450, 5 μM cholesterol; see Experimental procedures) with d0- (authentic, unlabeled) and d3-cholesterol, and the disappearance of each was monitored by LC-atmospheric pressure chemical ionization-MS (m/z 369.3516 and 372.3705, respectively). In theory, if C-H bond breaking were rate-limiting in the initial hydroxylation then the rate of d3-cholesterol consumption would be slower relative to the d0 compound due to the increased strength of a C-D bond.
The kinetic isotope experiment was designed similarly to the benchtop experiment described above, but with some modifications. P450 11A1 (5 μM) was reconstituted with the redox partners AdR (10 μM) and Adx (5 μM) on ice (10 min) prior to dilution in potassium Hepes (50 mM, pH 7.4) and H2O and addition of d3-cholesterol substrate (5 μM). […]
Samples (held at 4 °C) were injected (10 μl) using a Waters Acquity UPLC system on a Acquity BEH octadecylsilane (C18) 2.1 mm × 50 mm (1.7 μm) UPLC column (held at 25 °C) with a flow rate of 0.5 ml min^−1 using an isocratic mobile phase of CH3CN (only). The column eluate was subjected to atmospheric pressure chemical ionization and analyzed using a Thermo Fisher Scientific LTQ XL Orbitrap mass spectrometer instrument operating in positive mode, scanning from m/z 100 to 500, with a resolution setting of 120,000. […]

| SMILES | Kd (bovine P450 11A1 [1]) | rates of binding and dissociation (bovine P450 11A1 [2]) | koff of P450-sterol complex (human P450 11A1; 2 μM P450 11A1 + 2 μM steroid mixed with 20 μM ketoconazole, 23 °C, without Adx) | koff (human P450 11A1) | half-life at 5 μM (P450 11A1 (CYP11A1)) | observed binding rate (human P450 11A1; 20 μM final concentration, in HPCD) | apparent kon slower than kon of ketoconazole to unliganded P450 (human P450 11A1; in the presence of HPCD) | kon (human P450 11A1; read-out: apparent kon) |
| --- | --- | --- | --- | --- | --- | --- | --- | --- |
| CC(C)CC[C@@H](O)[C@](C)(O)[C@H]1CC[C@H]2[C@@H]3CC=C4C[C@@H](O)CC[C@]4(C)[C@H]3CC[C@]12C [20R,22R-(OH)2 Chol, (20R,22R)-Cholest-5-ene-3β,20,22-triol] | 81 nM | > 300 s⁻¹ |  |  |  |  |  |  |
| CC(C)CC[C@@H](O)[C@@H](C)[C@H]1CC[C@H]2[C@@H]3CC=C4C[C@@H](O)CC[C@]4(C)[C@H]3CC[C@]12C [22R-OH Chol, 22R-hydroxycholesterol] | 4.9 nM |  | 0.044 ± 0.001 s⁻¹ | 0.04 s⁻¹ |  |  |  |  |
| CC(C)CCC[C@@H](C)[C@H]1CC[C@H]2[C@@H]3CC=C4C[C@@H](O)CC[C@]4(C)[C@H]3CC[C@]12C [Cholesterol] |  | > 300 s⁻¹ |  | 0.24 ± 0.01 s⁻¹ | 20 s | 0.05 s⁻¹ | > 200 fold | 2500 M⁻¹ s⁻¹ |
